The values below come from US8192750B2, “Pharmaceutical composition for the treatment of otomycosis” (priority 2006, dated 2012).

The structures appear in SMILES notation. Entries after “also recorded” stand apart in the source; their conditions may differ.

Data set [1] can be described thus: solubility of griseofulvin in different solvents. In kind it is physicochemical. Particulars: mixtures with carriers.
The conditions of data set [2]: cited from earlier work.

Regarding `COC1=CC(=O)C[C@@H](C)[C@]12Oc1c(Cl)c(OC)cc(OC)c1C2=O` [griseofulvin, Griseofulvin], the “Solubility of griseofulvin in different solvents” value in data set [1] is “higher in admixture with high molecular weight substances, such as herbal agents (e.g. tea tree oil), but not in admixtures with saccharides or alcohol; also recorded: higher in mixtures with high molecular weight carriers such as herbal agents, but not with saccharides or alcohol”. Further, in data set [2], the solubility in water entry is given as “insoluble in water”.
